In this data set the test system is rodent lifetime carcinogenesis bioassay, tumor incidence TD50. Put plainly: chronic cancer bioassays in animals – CPDB, compiled studies (AID 1745844).

Active and inactive are the calls of the source. How the calls were made is not given here.

Take `CC1(C)[C@@H](O[C@H]2O[C@H](C(=O)O)[C@@H](O)[C@H](O)[C@H]2O[C@@H]2O[C@H](C(=O)O)[C@@H](O)[C@H](O)[C@H]2O)CC[C@]2(C)[C@H]3C(=O)C=C4[C@@H]5C[C@@](C)(C(=O)O)CC[C@]5(C)CC[C@@]4(C)[C@]3(C)CC[C@@H]12`: the carcinogen call is “negative (inactive)” (mouse, strain B6C3F1, females, in drinking water, site: any site (literature study), lesion: several types, types named in the paper, dosed 96 weeks, study length 110 weeks); “negative (inactive)” (mouse, strain B6C3F1, females, in drinking water, site: liver, lesion: hemangioma, dosed 96 weeks, study length 110 weeks); “negative (inactive)” (mouse, strain B6C3F1, females, in drinking water, site: lung, lesion: adenocarcinoma, dosed 96 weeks, study length 110 weeks); “negative (inactive)” (mouse, strain B6C3F1, males, in drinking water, site: liver, lesion: hemangioma, dosed 96 weeks, study length 110 weeks); “negative (inactive)” (mouse, strain B6C3F1, males, in drinking water, site: liver, lesion: hepatocellular adenoma, dosed 96 weeks, study length 110 weeks); “negative (inactive)” (mouse, strain B6C3F1, males, in drinking water, site: liver, lesion: hepatocellular carcinoma, dosed 96 weeks, study length 110 weeks). In addition, the carcinogen call (mouse, strain B6C3F1, males, in drinking water, site: lung, lesion: adenocarcinoma, dosed 96 weeks, study length 110 weeks) is “negative (inactive)” and the carcinogen call (mouse, strain B6C3F1, males, in drinking water, site: lung, lesion: adenoma, dosed 96 weeks, study length 110 weeks) is “negative (inactive)”. For the same compound, the TD50 by setting is: (mouse, strain B6C3F1, females, in drinking water, site: liver, lesion: hepatocellular adenoma, dosed 96 weeks, study length 110 weeks) 28900 mg/kg/day (inactive); (mouse, strain B6C3F1, females, in drinking water, site: liver, lesion: hepatocellular carcinoma, dosed 96 weeks, study length 110 weeks) 29000 mg/kg/day (inactive); (mouse, strain B6C3F1, females, in drinking water, site: lung, lesion: adenoma, dosed 96 weeks, study length 110 weeks) 14400 mg/kg/day (inactive); (mouse, strain B6C3F1, males, in drinking water, site: any site (literature study), lesion: several types, types named in the paper, dosed 96 weeks, study length 110 weeks) 3170 mg/kg/day (inactive).
For the compound `ClCC(Cl)Cl`, the TD50 is 47.6 mg/kg/day (mouse, strain B6C3F1, females, by gavage, site: adrenal gland + liver, lesion: pheochromocytoma + hepatocellular carcinoma, dosed 78 weeks, study length 90 weeks); 248 mg/kg/day (mouse, strain B6C3F1, females, by gavage, site: adrenal gland, lesion: pheochromocytoma, dosed 78 weeks, study length 90 weeks); 52.9 mg/kg/day (mouse, strain B6C3F1, females, by gavage, site: any site (literature study), lesion: several types, types named in the paper, dosed 78 weeks, study length 90 weeks); 47.6 mg/kg/day (mouse, strain B6C3F1, females, by gavage, site: liver, lesion: hepatocellular adenoma + hepatocellular carcinoma + neoplastic nodule, dosed 78 weeks, study length 90 weeks); 47.6 mg/kg/day (mouse, strain B6C3F1, females, by gavage, site: liver, lesion: hepatocellular carcinoma, dosed 78 weeks, study length 90 weeks); 787 mg/kg/day (mouse, strain B6C3F1, females, by gavage, site: lung, lesion: alveolar/bronchiolar adenoma + alveolar/bronchiolar carcinoma, dosed 78 weeks, study length 90 weeks). For the same compound, the TD50 was 65 mg/kg/day (mouse, strain B6C3F1, males, by gavage, site: adrenal gland + liver, lesion: pheochromocytoma + hepatocellular carcinoma, dosed 78 weeks, study length 90 weeks); 588 mg/kg/day (mouse, strain B6C3F1, males, by gavage, site: adrenal gland, lesion: pheochromocytoma, dosed 78 weeks, study length 90 weeks); 79.5 mg/kg/day (mouse, strain B6C3F1, males, by gavage, site: any site (literature study), lesion: several types, types named in the paper, dosed 78 weeks, study length 90 weeks); 65 mg/kg/day (mouse, strain B6C3F1, males, by gavage, site: liver, lesion: hepatocellular adenoma + hepatocellular carcinoma + neoplastic nodule, dosed 78 weeks, study length 90 weeks); 65 mg/kg/day (mouse, strain B6C3F1, males, by gavage, site: liver, lesion: hepatocellular carcinoma, dosed 78 weeks, study length 90 weeks); 1560 mg/kg/day (mouse, strain B6C3F1, males, by gavage, site: lung, lesion: alveolar/bronchiolar adenoma + alveolar/bronchiolar carcinoma, dosed 78 weeks, study length 90 weeks). Further, the TD50 (rat, strain Osborne-Mendel, females, by gavage, site: liver, lesion: hepatocellular adenoma + hepatocellular carcinoma + neoplastic nodule, dosed 78 weeks, study length 112 weeks) came to 771 mg/kg/day. For the same compound, the carcinogen call runs as follows: (rat, strain Osborne-Mendel, females, by gavage, site: any site (literature study), lesion: several types, types named in the paper, dosed 78 weeks, study length 112 weeks) “negative (inactive)”; (rat, strain Osborne-Mendel, males, by gavage, site: any site (literature study), lesion: several types, types named in the paper, dosed 78 weeks, study length 112 weeks) “negative (inactive)”.
Turning to `CCCCCCCC/C=C/CCCCCCCC(=O)OCCOCC(OCCO)C1OCC(OCCO)C1OCCO` (stereo not given), the TD50 by setting is: (mouse, strain B6C3F1, females, in feed, site: any site (literature study), lesion: several types, types named in the paper, dosed 103 weeks, study length 104 weeks) 42900 mg/kg/day (inactive); (mouse, strain B6C3F1, females, in feed, site: lung, lesion: alveolar/bronchiolar adenoma + alveolar/bronchiolar carcinoma, dosed 103 weeks, study length 104 weeks) 332000 mg/kg/day; (rat, strain Fischer 344, females, in feed, site: liver, lesion: hepatocellular adenoma + hepatocellular carcinoma + neoplastic nodule, dosed 103 weeks, study length 104 weeks) 15800 mg/kg/day; (rat, strain Fischer 344, females, in feed, site: liver, lesion: hepatocellular adenoma, dosed 103 weeks, study length 104 weeks) 15800 mg/kg/day (inactive); (rat, strain Fischer 344, males, in feed, site: adrenal medulla, lesion: pheochromocytoma benign, bilateral + pheochromocytoma, malignant + pheochromocytoma, benign, dosed 99 weeks, study length 99 weeks) 2580 mg/kg/day; (rat, strain Fischer 344, males, in feed, site: any site (literature study), lesion: several types, types named in the paper, dosed 99 weeks, study length 99 weeks) 3290 mg/kg/day. For the same compound, the TD50 (rat, strain Fischer 344, males, in feed, site: liver, lesion: hepatocellular adenoma + hepatocellular carcinoma + neoplastic nodule, dosed 99 weeks, study length 99 weeks) turned out to be 217000 mg/kg/day. Besides, where the note is “mouse, strain B6C3F1, males, in feed, site: any site (literature study), lesion: several types, types named in the paper, dosed 103 weeks, study length 104 weeks”, the carcinogen call was “negative (inactive)”.
Take `CCOP(=O)=O.CCOP(=O)=O.CCOP(=O)=O.[Al+3]`: the TD50 is 14600 mg/kg/day (rat, strain Charles River CD1, females, in feed, site: kidney/pelvis, lesion: several types, types named in the paper, dosed 104 weeks, study length 104 weeks); 17800 mg/kg/day (rat, strain Charles River CD1, females, in feed, site: kidney/pelvis, lesion: transitional-cell carcinoma, dosed 104 weeks, study length 104 weeks); 80400 mg/kg/day (rat, strain Charles River CD1, females, in feed, site: kidney/pelvis, lesion: transitional-cell papilloma, dosed 104 weeks, study length 104 weeks); 110000 mg/kg/day (rat, strain Charles River CD1, females, in feed, site: urinary bladder, lesion: adenosquamous carcinoma, dosed 104 weeks, study length 104 weeks); 17600 mg/kg/day (rat, strain Charles River CD1, females, in feed, site: urinary bladder, lesion: several types, types named in the paper, dosed 104 weeks, study length 104 weeks); 23900 mg/kg/day (rat, strain Charles River CD1, females, in feed, site: urinary bladder, lesion: transitional-cell carcinoma, dosed 104 weeks, study length 104 weeks). Besides, the TD50 is 452000 mg/kg/day (rat, strain Charles River CD1, females, in feed, site: urinary bladder, lesion: transitional-cell papilloma, dosed 104 weeks, study length 104 weeks); 36400 mg/kg/day (rat, strain Charles River CD1, males, in feed, site: kidney/pelvis, lesion: several types, types named in the paper, dosed 104 weeks, study length 104 weeks); 31800 mg/kg/day (rat, strain Charles River CD1, males, in feed, site: kidney/pelvis, lesion: transitional-cell papilloma, dosed 104 weeks, study length 104 weeks); 3660 mg/kg/day (rat, strain Charles River CD1, males, in feed, site: urinary bladder, lesion: several types, types named in the paper, dosed 104 weeks, study length 104 weeks); 5000 mg/kg/day (rat, strain Charles River CD1, males, in feed, site: urinary bladder, lesion: transitional-cell carcinoma, dosed 104 weeks, study length 104 weeks); 17200 mg/kg/day (rat, strain Charles River CD1, males, in feed, site: urinary bladder, lesion: transitional-cell papilloma, dosed 104 weeks, study length 104 weeks).
For the compound `Cc1ccccc1OCC(O)CNCCn1cc(C)c(=O)[nH]c1=O` (stereo not given), the TD50 (mouse, strain Charles River CD1, females, in feed, site: any site (literature study), lesion: several types, types named in the paper, dosed 78 weeks, study length 78 weeks) was found to be 52.3 mg/kg/day; the TD50 (mouse, strain Charles River CD1, females, in feed, site: liver, lesion: hepatocellular carcinoma, dosed 78 weeks, study length 78 weeks) was 1670 mg/kg/day; the TD50 (mouse, strain Charles River CD1, females, in feed, site: lung, lesion: adenocarcinoma, dosed 78 weeks, study length 78 weeks) is 1670 mg/kg/day; the TD50 (mouse, strain Charles River CD1, females, in feed, site: lung, lesion: adenoma, dosed 78 weeks, study length 78 weeks) turned out to be 449 mg/kg/day; the TD50 (mouse, strain Charles River CD1, males, in feed, site: liver, lesion: hepatocellular carcinoma, dosed 78 weeks, study length 78 weeks) was determined as 935 mg/kg/day.
In the case of `CC1(C)[C@H](C(=O)O[C@H](C#N)c2cccc(Oc3ccccc3)c2)[C@@H]1C=C(Br)Br`, the carcinogen call is, setting by setting: (mouse, strain C57BL/6, females, by gavage, site: all sites, lesion: lymphoma, dosed 104 weeks, study length 114 weeks) “negative (inactive)”; (mouse, strain C57BL/6, females, by gavage, site: any site (literature study), lesion: one or several types, types not named, dosed 104 weeks, study length 114 weeks) “negative (inactive)”; (mouse, strain C57BL/6, females, by gavage, site: liver, lesion: hepatoma, dosed 104 weeks, study length 114 weeks) “negative (inactive)”; (mouse, strain C57BL/6, females, by gavage, site: lung, lesion: adenoma, dosed 104 weeks, study length 114 weeks) “negative (inactive)”; (mouse, strain C57BL/6, males, by gavage, site: any site (literature study), lesion: one or several types, types not named, dosed 104 weeks, study length 114 weeks) “negative (inactive)”; (mouse, strain C57BL/6, males, by gavage, site: liver, lesion: hepatoma, dosed 104 weeks, study length 114 weeks) “negative (inactive)”. Further, the carcinogen call was “negative (inactive)” (mouse, strain C57BL/6, males, by gavage, site: lung, lesion: adenoma, dosed 104 weeks, study length 114 weeks); “negative (inactive)” (rat, strain BD VI, females, by gavage, site: liver, lesion: hepatoma, dosed 104 weeks, study length 114 weeks); “negative (inactive)” (rat, strain BD VI, males, by gavage, site: any site (literature study), lesion: one or several types, types not named, dosed 104 weeks, study length 114 weeks); “negative (inactive)” (rat, strain BD VI, males, by gavage, site: liver, lesion: hepatoma, dosed 104 weeks, study length 114 weeks). The TD50 (rat, strain BD VI, females, by gavage, site: any site (literature study), lesion: one or several types, types not named, dosed 104 weeks, study length 114 weeks) is 36.1 mg/kg/day (inactive); the TD50 (rat, strain BD VI, females, by gavage, site: thyroid gland, lesion: adenoma, dosed 104 weeks, study length 114 weeks) is 16.9 mg/kg/day (inactive); the TD50 (rat, strain BD VI, males, by gavage, site: thyroid gland, lesion: adenoma, dosed 104 weeks, study length 114 weeks) is 4.6 mg/kg/day (inactive).

By TD50 is commonly meant the dose at which the toxic effect under study appears in half of the subjects.

These data come from PubChem BioAssay AID1745844 (Carcinogenic Potency Database (CPDB), 2022).
